Where a name gives a salt, the structure may show the parent alone.
Assay: Specific surface area of isolated ferric citrate
Type: physicochemical
Conditions: vacuum dried at 30-40° C.

SMILES	specific surface area (Method B: two lots combined, sieve BSS 200/75 micron)	specific surface area (Method A step c: acetone dumped in one lot, 20 mesh sieve)
O=C1CC2(O)CC(=O)[O][Fe]([O]1)[O]C2=O [Example-3, ferric citrate]	above 16 sq. m/g	
O=C1CC2(O)CC(=O)[O][Fe]([O]1)[O]C2=O [Ferric citrate, iron (+3), x (1,2,3-propanetricarboxylic acid, 2-hydroxy-), y (H2O)]		above 20 m^2/g

From patent publication US20210332073A1, “PROCESS FOR THE PREPARATION OF FERRIC CITRATE” (priority 2020, published 2021)
